Drawing on US12459922B2 (Gilead Sciences, Inc., priority 2022, dated 2025), this text covers EC50 for 25 compounds.

The subject of this test is endogenous cellular STAT1 (phosphorylated at Tyr701) in NCI-H1373 cells. The experiment in a line: Phospho-STAT1 (Tyr701) LANCE Ultra TR-FRET Detection Assay. Format: cell-based. To be noted: phospho-STAT1 (Tyr701) induction, read-out: NH1373 pSTAT1 EC50.

Read-outs that look alike come from different tables or passages of the source.

With `Nc1nc(-c2cc3ccn(Cc4cccc(Nc5cn[nH]c(=O)c5C(F)(F)F)c4)c(=O)c3cc2F)ncc1C(F)(F)F` [Example 438, 6-(4-amino-5-(trifluoromethyl)pyrimidin-2-yl)-7-fluoro-2-(3-((6-oxo-5-(trifluoromethyl)-1,6-dihydropyridazin-4-yl)amino)benzyl)isoquinolin-1(2H)-one], the EC50 (Homo sapiens, NCI-H1373, 48 h) came out at 23.1 nM.
For the compound `O=c1[nH]ncc(N[C@@H](CO)CCCn2ccc3cc(-c4ncc(Cl)cn4)c(F)cc3c2=O)c1C(F)(F)F` [Example 166, 6-(5-chloropyrimidin-2-yl)-7-fluoro-2-[(4R)-5-hydroxy-4-[[6-oxo-5-(trifluoromethyl)-1H-pyridazin-4-yl]amino]pentyl]isoquinolin-1-one], the EC50 (Homo sapiens, NCI-H1373, 48 h) is 128 nM.
On to `CC[C@@H](CCCn1ccc2cc(-c3ncc(OC(F)F)c(N)n3)c(F)c(F)c2c1=O)Nc1cn[nH]c(=O)c1C(F)(F)F` [Example 361, (S)-6-(4-amino-5-(difluoromethoxy)pyrimidin-2-yl)-7,8-difluoro-2-(4-((6-oxo-5-(trifluoromethyl)-1,6-dihydropyridazin-4-yl)amino)hexyl)isoquinolin-1(2H)-one], for which, where the note is “Homo sapiens, NCI-H1373, 48 h”, the EC50 worked out at 10.9 nM.
Consider `Nc1nc(-c2cc3ncn(CCC[C@H](COC(F)F)Nc4cn[nH]c(=O)c4C(F)(F)F)c(=O)c3cc2F)nc(C2CC2)c1Cl` [Example 414, (R)-7-(4-amino-5-chloro-6-cyclopropylpyrimidin-2-yl)-3-(5-(difluoromethoxy)-4-((6-oxo-5-(trifluoromethyl)-1,6-dihydropyridazin-4-yl)amino)pentyl)-6-fluoroquinazolin-4(3H)-one], for which the EC50 (Homo sapiens, NCI-H1373, 48 h) was determined as 10.9 nM.
On to `COc1cnc(-c2cc3ccn(CCCC4CCN4c4cn[nH]c(=O)c4C(F)(F)F)c(=O)c3cc2F)nc1N` (stereo not shown) [Example 153, 6-(4-amino-5-methoxy-pyrimidin-2-yl)-7-fluoro-2-[3-[1-[6-oxo-5-(trifluoromethyl)-1H-pyridazin-4-yl]azetidin-2-yl]propyl]isoquinolin-1-one], for which, for the setting “Homo sapiens, NCI-H1373, 48 h”, the EC50 is 10.9 nM.
On to `C[C@@H](CCCn1ccc2cc(-c3ncc(C(F)(F)F)c(N)n3)c(F)cc2c1=O)Nc1cn[nH]c(=O)c1C(F)(F)F` [Example 100, 6-[4-amino-5-(trifluoromethyl)pyrimidin-2-yl]-7-fluoro-2-[(4S)-4-[[6-oxo-5-(trifluoromethyl)-1H-pyridazin-4-yl]amino]pentyl]isoquinolin-1-one], for which the EC50 (48 hours) was determined as 4.35 nM.
On to `O=c1[nH]ncc(N[C@H]2CCC[C@@H](Cn3cnc4cc(-c5ncc(C(F)F)cn5)c(F)cc4c3=O)C2)c1C(F)(F)F` [Example 244, 7-(5-(difluoromethyl)pyrimidin-2-yl)-6-fluoro-3-(((1R,3S)-3-((6-oxo-5-(trifluoromethyl)-1,6-dihydropyridazin-4-yl)amino)cyclohexyl)methyl)quinazolin-4(3H)-one], for which, where the note is “Homo sapiens, NCI-H1373, 48 h”, the EC50 is 5.19 nM.
In the case of `Nc1cc(-c2cc3ccn(C[C@@H]4CCC[C@H](Nc5cn[nH]c(=O)c5C(F)(F)F)C4)c(=O)c3cc2F)cnc1C(F)(F)F` [Example 271, 6-(5-amino-6-(trifluoromethyl)pyridin-3-yl)-7-fluoro-2-(((1R,3S)-3-((6-oxo-5-(trifluoromethyl)-1,6-dihydropyridazin-4-yl)amino)cyclohexyl)methyl)isoquinolin-1(2H)-one], the EC50 (Homo sapiens, NCI-H1373, 48 h) came out at 211 nM.
In the case of `Cc1cnc(-c2cc3ccn(C[C@@H]4CCC[C@H](Nc5cn[nH]c(=O)c5C(F)(F)F)C4)c(=O)c3cc2F)nc1` [Example 242], the EC50 (48 hours) came to 9.44 nM.
In the case of `O=c1[nH]ncc(N[C@H](CCCn2ccc3cc(-c4ccc(C(F)F)cn4)c(F)cc3c2=O)COC(F)F)c1C(F)(F)F` [Example 401, (R)-2-(5-(difluoromethoxy)-4-((6-oxo-5-(trifluoromethyl)-1,6-dihydropyridazin-4-yl)amino)pentyl)-6-(5-(difluoromethyl)pyridin-2-yl)-7-fluoroisoquinolin-1(2H)-one], where the note is “Homo sapiens, NCI-H1373, 48 h”, the EC50 was found to be 1.63 nM.
On the same count and under the same terms, under `C[C@@H](CCCn1ccc2cc(-c3ncc(Cl)c(N)n3)c(F)cc2c1=O)Nc1cn[nH]c(=O)c1C(F)(F)F` [Example 202, (S)-6-(4-amino-5-chloropyrimidin-2-yl)-7-fluoro-2-(4-((6-oxo-5-(trifluoromethyl)-1,6-dihydropyridazin-4-yl)amino)pentyl)isoquinolin-1(2H)-one] stands 1.84 nM.
On the same count and under the same terms, under `COc1cnc(-c2cc3ccn(C[C@@H]4CCC[C@H](Nc5cn[nH]c(=O)c5C(F)(F)F)C4)c(=O)c3cc2F)nc1` [Example 492, 7-fluoro-6-(5-methoxypyrimidin-2-yl)-2-[[(1R,3S)-3-[[6-oxo-5-(trifluoromethyl)-1H-pyridazin-4-yl]amino]cyclohexyl]methyl]isoquinolin-1-one] stands 7 nM.
The same measure, in the same setting: with `Nc1nc(-c2cc3ccn(C[C@H]4CCC[C@H](Nc5cn[nH]c(=O)c5C(F)(F)F)C4)c(=O)c3cc2F)ncc1C(F)(F)F` [Example 227, 6-(4-amino-5-(trifluoromethyl)pyrimidin-2-yl)-7-fluoro-2-(((1S,3S)-3-((6-oxo-5-(trifluoromethyl)-1,6-dihydropyridazin-4-yl)amino)cyclohexyl)methyl)isoquinolin-1(2H)-one] the figure was 15.7 nM.
Take `O=c1[nH]ncc(N[C@H]2CC[C@@H]2CCn2cnc3cc(-c4ncc(C(F)(F)F)cn4)c(F)cc3c2=O)c1C(F)(F)F` [Example 452, 6-fluoro-3-[2-[(1R,2S)-2-[[6-oxo-5-(trifluoromethyl)-1H-pyridazin-4-yl]amino]cyclobutyl]ethyl]-7-[5-(trifluoromethyl)pyrimidin-2-yl]quinazolin-4-one]: the EC50 (Homo sapiens, NCI-H1373, 48 h) was determined as 35.9 nM.
Take `Cc1nnc([C@@H](CCCn2ccc3cc(-c4ncc(C(F)(F)F)cn4)c(F)c(F)c3c2=O)Nc2cn[nH]c(=O)c2C(F)(F)F)o1` [Example 474, 7,8-difluoro-2-[(4R)-4-(5-methyl-1,3,4-oxadiazol-2-yl)-4-[[6-oxo-5-(trifluoromethyl)-1H-pyridazin-4-yl]amino]butyl]-6-[5-(trifluoromethyl)pyrimidin-2-yl]isoquinolin-1-one]: the EC50 (Homo sapiens, NCI-H1373, 48 h) was found to be 14.8 nM.
On the same count and under the same terms, under `COc1cnc(-c2cc3ncn(CCC[C@H](C)Nc4cn[nH]c(=O)c4C(F)(F)F)c(=O)c3cc2F)nc1NCC(F)F` [Example 159, 7-[4-(2,2-difluoroethylamino)-5-methoxy-pyrimidin-2-yl]-6-fluoro-3-[(4S)-4-[[6-oxo-5-(trifluoromethyl)-1H-pyridazin-4-yl]amino]pentyl]quinazolin-4-one] stands 283 nM; under `O=c1[nH]ncc(N[C@H]2CC[C@@H](Cn3ccc4cc(-c5ncc(C(F)(F)F)cn5)c(F)cc4c3=O)C2)c1C(F)(F)F` [Example 443, 7-fluoro-2-(((1R,3S)-3-((6-oxo-5-(trifluoromethyl)-1,6-dihydropyridazin-4-yl)amino)cyclopentyl)methyl)-6-(5-(trifluoromethyl)pyrimidin-2-yl)isoquinolin-1(2H)-one], 273 nM.
Take `C[C@@H](CCCn1ccc2cc(-c3nc(N)ncc3C(F)F)c(F)c(F)c2c1=O)Nc1cn[nH]c(=O)c1C(F)(F)F` [Example 114, 6-[2-amino-5-(difluoromethyl)pyrimidin-4-yl]-7,8-difluoro-2-[(4S)-4-[[6-oxo-5-(trifluoromethyl)-1H-pyridazin-4-yl]amino]pentyl]isoquinolin-1-one]: the EC50 (Homo sapiens, NCI-H1373, 48 h) is 852 nM.
On to `Nc1nc(-c2cc3ccn(CCC[C@@H]4CC5(CC5)CN4c4cn[nH]c(=O)c4C(F)(F)F)c(=O)c3cc2F)ncc1C(F)F` [Example 143, 6-[4-amino-5-(difluoromethyl)pyrimidin-2-yl]-7-fluoro-2-[3-[(6R)-5-[6-oxo-5-(trifluoromethyl)-1H-pyridazin-4-yl]-5-azaspiro[2.4]heptan-6-yl]propyl]isoquinolin-1-one], for which the EC50 (Homo sapiens, NCI-H1373, 48 h) amounted to 26.5 nM.
On the same count and under the same terms, under `C[C@@H](CCCn1ccc2cc(-c3ncc(C(F)(F)F)c(N4CC(C#N)C4)n3)c(F)cc2c1=O)Nc1cn[nH]c(=O)c1C(F)(F)F` [Example 119, (S)-1-(2-(7-fluoro-1-oxo-2-(4-((6-oxo-5-(trifluoromethyl)-1,6-dihydropyridazin-4-yl)amino)pentyl)-1,2-dihydroisoquinolin-6-yl)-5-(trifluoromethyl)pyrimidin-4-yl)azetidine-3-carbonitrile] stands 3.36 nM; under `CC[C@@H](CCCn1ccc2cc(-c3ncc(OC)c(N)n3)c(F)cc2c1=O)Nc1cn[nH]c(=O)c1C(F)(F)F` [Example 343, (S)-6-(4-amino-5-methoxypyrimidin-2-yl)-7-fluoro-2-(4-((6-oxo-5-(trifluoromethyl)-1,6-dihydropyridazin-4-yl)amino)hexyl)isoquinolin-1(2H)-one], 3.56 nM.
Take `COc1cnc(-c2cc3ccn(CCC[C@@H](Nc4cn[nH]c(=O)c4C(F)(F)F)C4CC4)c(=O)c3cc2F)nc1N` [Example 146, 6-(4-amino-5-methoxypyrimidin-2-yl)-2-[(4R)-4-cyclopropyl-4-[[6-oxo-5-(trifluoromethyl)-1H-pyridazin-4-yl]amino]butyl]-7-fluoroisoquinolin-1-one]: the EC50 (Homo sapiens, NCI-H1373, 48 h) is 14.5 nM.
Same read-out and setting: with `C#C[C@H](CCCn1ccc2cc(-c3ncc(C(F)(F)F)cn3)c(F)cc2c1=O)Nc1cn[nH]c(=O)c1C(F)(F)F` [Example 171, 7-fluoro-2-[(4S)-4-[[6-oxo-5-(trifluoromethyl)-1H-pyridazin-4-yl]amino]hex-5-ynyl]-6-[5-(trifluoromethyl)pyrimidin-2-yl]isoquinolin-1-one] the figure was 257 nM; with `O=c1[nH]ncc(N[C@@H](CO)CCCn2ccc3cc(-c4ncc(C(F)(F)F)cn4)c(F)cc3c2=O)c1C(F)(F)F` [Example 88, 7-fluoro-2-[(4R)-5-hydroxy-4-[[6-oxo-5-(trifluoromethyl)-1H-pyridazin-4-yl]amino]pentyl]-6-[5-(trifluoromethyl)pyrimidin-2-yl]isoquinolin-1-one], 86.2 nM; with `C[C@@H](CCCn1ccc2cc(-c3nc(N)ccc3C#N)c(F)cc2c1=O)Nc1cn[nH]c(=O)c1C(F)(F)F` [Example 291, (S)-6-amino-2-(7-fluoro-1-oxo-2-(4-((6-oxo-5-(trifluoromethyl)-1,6-dihydropyridazin-4-yl)amino)pentyl)-1,2-dihydroisoquinolin-6-yl)nicotinonitrile], 709 nM.
